The results in this text go back to patent US6706740B2, “Fungicidal heterocyclic aromatic amides and their compositions, methods of use and preparation” (Dow AgroSciences LLC, priority 1999, dated 2004).

Read-outs that look alike come from different tables or passages of the source.

Assay [1] has as its system Rhizoctonia solani (RHIZSO). The experiment in a line: microbe, parasite or virus in culture. To be noted: Rhizoctonia solani, read-out: RHIZSO in vitro Growth Inhibition. It counts as cell-based.
Assay [2] deals with Stagonospora nodorum (Leptosphaeria nodorum—LEPTNO). The experiment in a line: In vitro fungal growth inhibition, Stagonospora nodorum (LEPTNO). Type of assay: cell-based. Conditions: Leptosphaeria, read-out: LEPTNO in vitro Growth Inhibition.
The test system of another assay is Septoria tritici—SEPTTR. The experiment in a line: Leaf Blotch of Wheat, in vivo whole plant, 24 Hour Protectant. Conditions: for pest or weed control at 100 ppm: Zymoseptoria tritici, 24 h, control of fungal infection vs untreated plants, read-out: SEPTTR in vivo 1 Day Protectant.
In the next assay the test system is Erysiphe graminis—ERYSGT. The experiment in a line: Powdery Mildew of Wheat, in vivo whole plant, 24 Hour Protectant. To be noted: Erysiphe, read-out: ERYSGT in vivo 1 Day Protectant.
Another assay concerns Ustilago maydis (USTIMA). Description: microbe, parasite or virus in culture. To be noted: Mycosarcoma maydis, read-out: USTIMA in vitro Growth Inhibition. Type of assay: cell-based.
Assay [3] has as its system Magnaporthe grisea (Pyricularia oryzae—PYRIOR). The experiment in a line: microbe, parasite or virus in culture. It counts as cell-based. To be noted: Pyricularia oryzae, read-out: PYRIOR in vitro Growth Inhibition.
The subject of assay [4] is Mycosphaerella graminicola (Septoria tritici—SEPTTR). The experiment in a line: In vitro fungal growth inhibition, Mycosphaerella graminicola (SEPTTR). It counts as cell-based. To be noted: Zymoseptoria tritici, read-out: SEPTTR in vitro Growth Inhibition.
Assay [5] deals with Leptosphaeria nodorum—LEPTNO. The experiment in a line: Glume Blotch of Wheat, in vivo whole plant, 24 Hour Protectant. Conditions: for pest or weed control at 100 ppm: Leptosphaeria, read-out: LEPTNO in vivo 1 Day Protectant.
Assay [6] relates to Phytophthora infestans—PHYTIN. Description: whole plant or invertebrate. Type of assay: in vivo. To be noted: Phytophthora, in Solanum lycopersicum, 24 h, read-out: PHYTIN in vivo 1 Day Protectant.
Assay [7] concerns Puccinia recondita—PUCCRT. Description: Brown Rust of Wheat, in vivo whole plant, 24 Hour Protectant. To be noted: for pest or weed control at 100 ppm: Puccinia, read-out: PUCCRT in vivo 1 Day Protectant.
Assay [8] has as its system Phytophthora infestans (PHYTIN). The experiment in a line: microbe, parasite or virus in culture. Type of assay: cell-based. To be noted: Phytophthora infestans, read-out: PHYTIN in vitro Growth Inhibition.
Where [9] appears, read: 100 ppm spray, wheat, 24 hour protectant.
Setting [10] is: 100 ppm spray, wheat, 24 hour protectant, control of fungal infection vs untreated plants.
[11] abbreviates: 100 ppm spray, 24 hour protectant, wheat.
Where [12] appears, read: 100 ppm spray, 24 hour protectant, wheat, control of fungal infection vs untreated plants.
The mark [13] stands for this setting: 100 ppm spray, wheat, 24 hour protectant, % control of fungal infection vs untreated plants.
Where [14] appears, read: wheat plants sprayed at 100 ppm, inoculated after 24 hours.
Where [15] appears, read: wheat plants sprayed at 100 ppm, inoculated after 24 hours, control of fungal infection vs untreated plants.

Broadly, the inhibition is the share of the control response that was lost under treatment. Turning to `COc1ccnc(C(=O)Nc2ccc(OCc3cccc(C(F)(F)F)c3)cc2)c1O` [Compound 447], the inhibition at 25 ppm (in assay [1]; in assay [2] (25 ppm in growth medium); in the assay on Ustilago maydis (USTIMA); in [3]; in assay [4] (25 ppm in growth medium); in [8]) was less than 80% each time. Moreover, the pest or weed control at 100 ppm was less than 25% with Septoria tritici—SEPTTR (setting [9]); less than 25% with Erysiphe graminis—ERYSGT (setting [10]); 25 to 74% in assay [5] (setting [10]); less than 25% in [6]; less than 25% in [7] (setting [10]).
Consider `COc1ccnc(C(=O)N[C@H]2CO[C@@H](C(C)Cc3ccc(C(C)(C)C)cc3)OC2)c1O` (stereo partly shown) [Compound 317], for which the inhibition at 25 ppm (in assay [1]; in assay [2] (25 ppm in growth medium); in the assay on Ustilago maydis (USTIMA); in assay [3]; in assay [4] (25 ppm in growth medium); in assay [8]) was less than 80% in each case. In addition, the pest or weed control at 100 ppm is less than 25% in the assay with Septoria tritici—SEPTTR (setting [11]), less than 25% in the assay with Erysiphe graminis—ERYSGT (setting [12]), less than 25% in [5] (setting [12]) and 25 to 74% in assay [6]. Further, the “PUCCRT in vivo 1 Day Protectant” value in assay [7] (setting [12]) is listed as “+ +”.
In the case of `COc1ccnc(C(=O)N[C@@H]2CC3CC2[C@H]2COC[C@@H]32)c1O` (stereo partly shown) [Compound 302], the inhibition at 25 ppm (in assay [1]; in assay [2] (25 ppm in growth medium); with Ustilago maydis (USTIMA); in assay [3]; in [4] (25 ppm in growth medium); in assay [8]) was less than 80% in each case. For the same molecule, the pest or weed control at 100 ppm in the assay with Septoria tritici—SEPTTR (setting [11]) was 25 to 74%; with Erysiphe graminis—ERYSGT (setting [12]), less than 25%; in assay [5] (setting [12]), 25 to 74%; in assay [6], less than 25%; in assay [7] (setting [12]), less than 25%.
Take `COc1ccnc(C(=O)NC(COC(=O)CC(C)OC(=O)CCc2ccccc2)C(=O)OC(C)C)c1O` (stereo not shown) [Compound 353]: the inhibition at 25 ppm (in assay [1]; in assay [2] (25 ppm in growth medium); in the assay with Ustilago maydis (USTIMA); in [3]; in assay [4] (25 ppm in growth medium); in [8]) was less than 80% each time. Besides, the pest or weed control at 100 ppm (in the assay with Septoria tritici—SEPTTR (setting [9]); in the assay on Erysiphe graminis—ERYSGT (setting [10]); in assay [5] (setting [10]); in assay [6]) was less than 25% in each case. The “PUCCRT in vivo 1 Day Protectant” value in [7] (setting [10]) was “+ +”.
`C[C@H](NC(=O)c1ncccc1O)c1cccc2ccccc12` [Compound 232]: the inhibition at 25 ppm was less than 80% in [1]; less than 80% in assay [2] (25 ppm in growth medium); less than 80% with Ustilago maydis (USTIMA); more than 80% in assay [3]; more than 80% in assay [4] (25 ppm in growth medium); less than 80% in [8]. The pest or weed control at 100 ppm in the assay with Septoria tritici—SEPTTR (setting [11]) was less than 25%; with Erysiphe graminis—ERYSGT (setting [12]) it was 25 to 74%; in [5] (setting [12]) it was less than 25%; in assay [6], less than 25%; in assay [7] (setting [12]), less than 25%.
For the molecule `COc1ccnc(C(=O)N[C@H]2COC(=O)[C@H](Cc3ccccc3)[C@@H](OC(=O)C(C)C)[C@H](C)OC2=O)c1OC(=O)CCCBr` [Compound 625], the inhibition at 25 ppm is less than 80% in assay [1]; more than 80% in assay [2] (25 ppm in growth medium); less than 80% in the assay with Ustilago maydis (USTIMA); less than 80% in [3]; less than 80% in assay [4] (25 ppm in growth medium); less than 80% in assay [8]. For the same molecule, the “SEPTTR in vivo 1 Day Protectant” value with Septoria tritici—SEPTTR (setting [13]) is “+ +”. For the same molecule, the pest or weed control at 100 ppm (in the assay with Erysiphe graminis—ERYSGT (setting [13]); in [6]) was less than 25% in each case. Moreover, the “LEPTNO in vivo 1 Day Protectant” value in [5] (setting [13]) is on record as “+ +”. Besides, the “PUCCRT in vivo 1 Day Protectant” value in [7] (setting [13]) is listed as “+ +”.
On to `COc1ccnc(C(=O)NC(COC(=O)CCc2ccccc2)C(=O)OC(C)COC(=O)C(C)C)c1OC(C)=O` (stereo not shown) [Compound 590], for which the inhibition at 25 ppm (in [1]; in assay [2] (25 ppm in the growth medium); in the assay on Ustilago maydis (USTIMA); in assay [3]; in assay [4] (25 ppm in the growth medium); in [8]) was less than 80% throughout. Also, the pest or weed control at 100 ppm with Septoria tritici—SEPTTR (setting [14]) is 25 to 74%; in the assay with Erysiphe graminis—ERYSGT (setting [15]) it was less than 25%; in [5] (setting [15]), 25 to 74%; in [6], less than 25%; in [7] (setting [15]) it was 25 to 74%.
Turning to `COc1ccnc(C(=O)N[C@H]2COC(=O)[C@H](Cc3ccccc3)[C@@H](O)[C@H](C)OC2=O)c1O` [Compound 383], the inhibition at 25 ppm (in assay [1]; in assay [2] (25 ppm in growth medium); in the assay on Ustilago maydis (USTIMA); in assay [3]; in assay [4] (25 ppm in growth medium); in assay [8]) was less than 80% each time. Also, the pest or weed control at 100 ppm in the assay with Septoria tritici—SEPTTR (setting [9]) is less than 25%; in the assay on Erysiphe graminis—ERYSGT (setting [10]), less than 25%; in [5] (setting [10]), less than 25%; in assay [6] it was less than 25%; in assay [7] (setting [10]), 25 to 74%.
For `COc1ccnc(C(=O)NC2C[C@H](C)O[C@@](C)(Cc3ccccc3)C2)c1O` (stereo partly shown) [Compound 312], the inhibition at 25 ppm (in [1]; in [2] (25 ppm in growth medium); with Ustilago maydis (USTIMA); in [3]; in assay [4] (25 ppm in growth medium); in assay [8]) was less than 80% in each case. In addition, the pest or weed control at 100 ppm was 25 to 74% with Septoria tritici—SEPTTR (setting [11]); 25 to 74% in the assay with Erysiphe graminis—ERYSGT (setting [12]); 25 to 74% in assay [5] (setting [12]); less than 25% in assay [6]; less than 25% in assay [7] (setting [12]).
Consider `CC(C)C(=O)O[C@H]1[C@H](C)OC(=O)[C@@H](NC(=O)c2nscc2O)COC(=O)[C@@H]1Cc1ccccc1` [Compound 550], for which the inhibition at 25 ppm is less than 80% in assay [1]; more than 80% in assay [2] (25 ppm in the growth medium); less than 80% in the assay on Ustilago maydis (USTIMA); more than 80% in [3]; more than 80% in assay [4] (25 ppm in the growth medium); more than 80% in [8]. Besides, the pest or weed control at 100 ppm was 25 to 74% in the assay with Septoria tritici—SEPTTR (setting [14]), 25 to 74% with Erysiphe graminis—ERYSGT (setting [15]), less than 25% in assay [6] and 25 to 74% in [7] (setting [15]). Besides, in assay [5] (setting [15]), the “LEPTNO in vivo 1 Day Protectant” value is “+ +”.
Consider `COc1ccnc(C(=O)Nc2ccc(Oc3ccc(C(F)(F)F)cc3)nc2)c1O` [Compound 472], for which the inhibition at 25 ppm in assay [1] was less than 80%; in assay [2] (25 ppm in the growth medium), less than 80%; with Ustilago maydis (USTIMA), less than 80%; in assay [3] it was more than 80%; in assay [4] (25 ppm in the growth medium), less than 80%; in assay [8], less than 80%. In addition, the pest or weed control at 100 ppm with Septoria tritici—SEPTTR (setting [14]) was 25 to 74%; with Erysiphe graminis—ERYSGT (setting [15]), less than 25%; in assay [5] (setting [15]), 25 to 74%; in assay [6] it was less than 25%; in [7] (setting [15]) it was 25 to 74%.
